The record followed here is US20180160679A1, “PROCESS FOR TREATING PERENNIAL PLANT WOOD DISEASES” (priority 2015, published 2018).

In test [1] the test system is Phaemoniella chlamydospora (81pep). Put plainly: Germination of the spores on malt-agar medium with fungicide. The class given is cell-based. The note with it: at 0.05 mg/1. On the procedure: (§1) Formulation 3 was used in this experiment and was compared with two formulations 5 and 6, devoid of one of the two active ingredients but of identical composition (the quantity of active ingredient omitted is replaced with water).
(§2) The fungi on which formulations 3, 5 and 6 were tested are Phaemoniella chlamydospora (81pep), Phaeoacremonium aleophilum (LR 23), Diplodia seriata (F98-01), Neofusicoccum parvum (NpSV) and Eutypa lata.
(§3) The fungi are transferred to a malt-agar medium (15 g of malt and 20 g of agar per litre of deionized water, sterilized at 120° C. for 20 minutes) in a Petri dish for multiplication.
(§4) The conidia of Phaemoniella chlamydospora and Phaeoacremonium aleophilum are obtained from cultures of these fungi. The conidia are obtained by rinsing the colony of fungi with a few millilitres of sterile deionized water.
(§5) The suspension of conidia in deionized water is then adjusted to 100-200 conidia per μl.
(§6) The culture medium is a malt-agar medium (15 g of malt and 20 g of agar per litre of deionized water, sterilized at 120° C. for 20 minutes).
(§7) The medium containing the fungicides is prepared by diluting the formulation under investigation in deionized water, which is added to the culture medium. The mixture is then homogenized and distributed in Petri dishes with a diameter of 90 mm.
(§8) The final concentrations of each active ingredient in the medium are as follows: 0.0005, 0.005, 0.05, 0.5, 5, 50 and 500 mg/L.
(§9) 100 μl of a previously homogenized suspension of spores is deposited and spread over the surface of the culture medium.
(§10) Two repetitions are carried out for each test.
(§11) The percentage germination of the spores is evaluated relative to a control placed under the same conditions.
(§12) Two Petri dishes are incubated at 25° C. for a time required for the spores of the control dish to have germinated between 90 and 100%.
(§13) For each Petri dish, 200 spores are counted and the percentage of spores germinated is calculated.
(§14) For each concentration of fungicide, the percentage efficacy of the active ingredient is determined by the following equation: […]

Test [2] concerns Phaeoacremonium aleophilum (LR 23). The test is described as above. The class given is cell-based. As to conditions: at the concentrations tested (0.0005 to 500 mg/L). On the procedure:
as §1, §2, §3, §4, §5, §6, §7, §8, §9, §10, §11, §12, §13, §14

In test [3] the test system is Diplodia seriata (F98-01). The description is as above. It counts as cell-based. The note with it: at the concentrations tested (0.0005 to 500 mg/L). On the procedure:
as §1, §2, §3
The conidia of Diplodia seriata are obtained from pycnidia that have developed in less than three weeks of culture on the malt-agar medium. The pycnidia are taken from and cultured in sterile water in such a way that they release the conidia.
(§15) The culture medium is a malt-agar medium (15 g of malt and 20 g of agar per litre of deionized water, sterilized at 120° C. for 20 minutes). […]
(§16) The percentage germination of the spores is evaluated relative to a control placed under the same conditions. […]
as §13, §14

Test [4] deals with Neofusicoccum parvum (NpSV). The description is as above. The class given is cell-based. As to the method:
as §1, §2, §3
The conidia of Neofusicoccum parvum are obtained from pycnidia that have developed on fragments of grapevines shoots.
as §6
The medium containing the fungicides is prepared by diluting the formulation under investigation in deionized water, which is added to the culture medium. […]
as §16, §13, §14

A further test deals with Eutypa lata. The description is as above. It counts as cell-based. As to the method: as §1, §2, §3
The ascospores of Eutypa lata are obtained from perithecia situated on vine plants that have died from Eutypiosis. The perithecia are decapitated superficially, isolated one by one and soaked in sterile water for approximately 2 hours. The concentration of ascospores is then adjusted to 100-200 conidia per μl.
as §15, §16, §13, §14

Test [5] concerns Diplodia seriata (F98-01). Briefly: Mycelial growth on malt-agar medium with fungicide. The class given is cell-based. As to the method: (§17) Formulation 3 was used in this experiment and was compared with two formulations 5 and 6, is devoid of one of the two active ingredients but of identical composition (the quantity of active ingredient omitted is replaced with water).
(§18) The fungi on which formulations 3, 5 and 6 were tested are Diplodia seriata (F98-01), Neofusicoccum parvum (NpSV), Eutypa lata (St309) and Formitiporia mediterranea (F2010-1).
as §6, §7, §8
(§19) Discs with a diameter of 6 mm, cut out with a punch, are placed in each dish in sterile conditions. Three repetitions are carried out for each test. The Petri dishes are incubated at 25° C. for a time necessary for the fungus to develop as far as 1 or 2 cm from the edges of a Petri dish.
(§20) The percentage mycelial growth is evaluated relative to a control placed under the same conditions for each concentration of fungicide, by the following equation: […]
(§21) The value of the concentration of the active ingredients required for inhibiting mycelial growth at 50% (IC50) or at 90% (IC90) is calculated from the regression straight line of the percentage efficacy as a function of the logarithm of the concentration of the fungicide.
(§22) The value of the concentration of the fungicide that is lethal for the fungus is obtained according to the following methodology; the mycelial implants that have not developed on the culture medium with fungicide are transferred to a malt-agar culture medium, without fungicide. The Petri dishes are then incubated at ambient temperature. Failure of the mycelial implant to take is noted.
(§23) The interactions between the fungicides in composition 3 are investigated by Wadley's method. IC50 and IC90 can be determined for each fungicide and for the fungicide combination from the curves plotted for each active ingredient used alone or for the combination.
(§24) IC90 and the theoretical IC90 for the combination is then calculated using the following equation:
(§25) The type and the level of the interaction F are then calculated by dividing the theoretical IC value by the experimental IC observed for the combination of fungicides (F=theoretical IC/experimental IC).
(§26) The interactions are defined thus: • Additivity: F=1, • Synergy: F>1, • Antagonism: F<1.
(§27) The efficacy of tetraconazole, cyproconazole alone or in combination with chlorothalonil or metiram zinc on mycelial growth was evaluated under the same conditions as in Example 4.
(§28) The efficacy of tebuconazole in combination with another […] antifungal, metiram zinc, was also evaluated.

A further test concerns Eutypa lata (St309). Briefly: Mycelial growth on malt-agar medium with fungicide. It counts as cell-based. The note with it: for activity on mycelial growth: Example 6. As to the method:
as §17, §18, §6, §7, §8, §19, §20, §21, §22, §23, §24, §25, §26, §27, §28

The test system of test [6] is Neofusicoccum parvum (NpSV). Put plainly: Mycelial growth on malt-agar medium with fungicide. It counts as cell-based. On the procedure: as §17, §18, §6, §7, §8, §19, §20, §21, §22, §23, §24, §25, §26, §27, §28
The test system of test [7] is Formitiporia mediterranea (F2010-1). Briefly: Mycelial growth on malt-agar medium with fungicide. The class given is cell-based, Fomitoporia mediterranea. On the procedure:
as §17, §18, §6, §7, §8, §19, §20, §21, §22, §23, §24, §25, §26, §27, §28

In test [8] the test system is Phaeocremonium aleophilum. Briefly: Mycelial growth on malt-agar medium with fungicide (Example 6). It counts as cell-based. On the procedure:
as §6, §7, §19, §20, §21
(§29) The value of the concentration of the fungicide that is lethal for the fungus is obtained according to the following methodology; the mycelial implants that have not developed on the culture medium with fungicide are transferred to a malt-agar culture medium, without fungicide. The Petri dishes are then incubated at ambient temperature. Failure of the mycelial implant to take is noted. […]
as §27, §28

For test [9], the system named is Phaeomoniella chlamydospora. Described as above. The class given is cell-based. On the procedure: as §6, §7, §19, §20, §21, §29, §27, §28
For test [10], the system named is Neonectria galligena (Cylindrocarpon heteronema). Briefly: Growth inhibition by laser nephelometry in 96-well microplates. The class given is cell-based. As to the method:
(§30) For multicellular organisms such as fungi, the nephelometry method is used on sporulating strains (Joubert et al., Laser nephelometry applied in an automated microplate system to study filamentous fungus growth, Biotechniques 48: 399-404, 2010).
(§31) The strains are multiplied on suitable agar media in an oven at 20° C., for 8 days before their use, so as to be in their exponential growth phase. The fungal suspension is prepared extemporaneously at a concentration of […] for Pc and […] for Ch.
(§32) 100 μl of the suspension is used for the tests.
(§33) The tests are carried out in 96-well microplates. Doses of 0 ppm, 0.1 ppm, 0.3 ppm, 1 ppm, 3 ppm, 10 ppm, 30 ppm, 100 ppm, 300 ppm, 1000 ppm and 3000 ppm (final concentration of the substance) will be tested per product.
(§34) Three technical repetitions are carried out per modality (target species/formulation).
(§35) Controls are added per target pathogenic agent: one positive growth control and the products alone at the highest doses.
(§36) Nephelometry measurements (RNU) are carried out for 60 h, every 30 minutes and the growth values are measured to study the growth inhibition effect relative to the fungal controls.

The next test concerns Phytophthora cactorum. The test is described as above. It counts as cell-based. The note with it: nephelometry for 60 h. On the procedure:
as §30, §31, §32, §33, §34, §35, §36

Where [11] appears, read: Example 5, at the concentrations tested.

In the case of `N#Cc1c(Cl)c(Cl)c(Cl)c(C#N)c1Cl` [chlorothalonil], the “inhibition of germination of the spores” value in [1], in [2] and in [3] was “does not inhibit germination of the spores” in each case. For the same compound, in [4], the “concentration from which germination of the spores is inhibited” value was not below 5 mg/L. The “concentration that inhibits germination of the spores” value with Eutypa lata is 5 mg/1. Also, the “concentration from which mycelial development is strongly inhibited” value is not below 500 mg/L in [5] (Example 5), not below 50 mg/L with Eutypa lata (St309) (Example 5) and not below 5 mg/L in test [7] (Example 5). The “fungicide (lethal) activity” value in test [5] (setting [11]) is reported as “does not display fungicide activity”; in the test with Eutypa lata (St309) (Example 5, at the concentrations tested (0.0005 to 500 mg/L)) it was “does not display fungicide activity”; in test [6] (setting [11]), “does not display fungicide activity”; in test [7] (at the concentrations tested), “does not display fungicide activity”. In addition, the “activity on mycelial growth” value in test [5] (Example 6) is given as “low activity”; in the test with Eutypa lata (St309) it was “do not inhibit the mycelial growth of Eutypa lata completely”; in the test on Eutypa lata (St309) (listed as Chlorothalonil), “low activity”; in test [6] (Example 6), “moderate activity”. In test [6] (Example 5), the “concentration at which mycelial development is strongly inhibited” value worked out at 500 mg/L. The “concentration at which mycelial growth is inhibited completely” value in test [8] and in [9] was 500 mg/L throughout. In test [10], this compound displayed a lethal dose not below 300 ppm. Also, the IC50 result in test [10] (growth, nephelometry for 60 h) is listed as “approximately 100 ppm”. The IC90 entry in test [10] (growth, nephelometry for 60 h) is on record as “around 250 ppm”. Also, in the test with Phytophthora cactorum, the “50% inhibitory concentration (IC50)” value is given as “below 10 ppm”. The “90% inhibitory concentration (IC90)” value with Phytophthora cactorum came out at 1000 ppm.
